Source: US20050009840A1 (SUGEN, INC., priority 2003, published 2005)

The compounds below were run against T1, HGFR (Homo sapiens, UniProt P08581) (assay: HGFR continuous-coupled spectrophotometric assay). Settings: Table 3, column 'Ki (μM) or I (%)': cells without % sign; read-out: Ki.
T1 construct: purchased Upstate 14-526
Type: biochemical

T1 sequence (P08581 974-1390 limits assumed): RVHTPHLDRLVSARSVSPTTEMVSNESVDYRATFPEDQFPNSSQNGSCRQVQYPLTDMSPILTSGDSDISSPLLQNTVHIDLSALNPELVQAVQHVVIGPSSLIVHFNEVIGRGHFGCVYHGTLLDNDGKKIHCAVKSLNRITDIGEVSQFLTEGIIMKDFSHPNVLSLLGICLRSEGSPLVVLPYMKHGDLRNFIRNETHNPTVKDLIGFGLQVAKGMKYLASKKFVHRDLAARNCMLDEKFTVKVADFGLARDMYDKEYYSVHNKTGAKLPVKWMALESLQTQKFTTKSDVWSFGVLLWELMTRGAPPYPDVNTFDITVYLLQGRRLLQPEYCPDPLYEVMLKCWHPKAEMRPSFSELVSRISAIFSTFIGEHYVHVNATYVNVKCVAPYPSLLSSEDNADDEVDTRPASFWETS

Ki [µM] | Structure (SMILES)
0.513 | CC(Oc1cc(-c2ccc(=O)n(CCC3CCCN3C)c2)cnc1N)c1c(Cl)ccc(F)c1Cl (centres unmarked) [Example I-639, 6′-Amino-5′-[1-(2,6-dichloro-3-fluoro-phenyl)-ethoxy]-1-[2-(1-methyl-pyrrolidin-2-yl)-ethyl]-1H-[3,3′]bipyridinyl-6-one]
0.0432 | CC(Oc1cc(-c2ccc(O)nc2)cnc1N)c1c(Cl)ccc(F)c1Cl (centres unmarked) [Example I-643, 6′-Amino-5′-[1-(2,6-dichloro-3-fluoro-phenyl)-ethoxy]-1H-[3,3′]-bipyridinyl-6-one]
0.196 | CC(Oc1cc(-c2cncc(Br)c2)cnc1N)c1c(Cl)ccc(F)c1Cl (centres unmarked) [Example I-644, 5′-Bromo-5-[1-(2,6-dichloro-3-fluoro-phenyl)-ethoxy]-[3,3′]bipyridinyl-6-ylamine]
0.157 | CC(Oc1cc(-c2ccc(N(C)C)cc2)cnc1N)c1c(Cl)ccc(F)c1Cl (centres unmarked) [Example I-645, 3-[1-(2,6-Dichloro-3-fluoro-phenyl)-ethoxy]-5-(4-dimethylamino-phenyl)-pyridin-2-ylamine]
0.099 | COc1ncccc1-c1cnc(N)c(OC(C)c2c(Cl)ccc(F)c2Cl)c1 (centres unmarked) [Example I-646, 5-[1-(2,6-Dichloro-3-fluoro-phenyl)-ethoxy]-2′-methoxy-[3,3′]bipyridinyl-6-ylamine]
0.166 | CC(Oc1cc(-c2ccc3[nH]ccc3c2)cnc1N)c1c(Cl)ccc(F)c1Cl (centres unmarked) [Example I-647, 3-[1-(2,6-Dichloro-3-fluoro-phenyl)-ethoxy]-5-(1H-indol-5-yl)-pyridin-2-ylamine]
0.553 | CCC(Oc1cc(-c2ccc(C(=O)N3C[C@@H](C)N[C@@H](C)C3)cc2)cnc1N)c1c(Cl)cccc1Cl (some centres unmarked) [Example I-648, (4-{6-Amino-5-[1-(2,6-dichloro-phenyl)-propoxy]-pyridin-3-yl}-phenyl)-(3,5-dimethyl-piperazin-1-yl)-methanone]

Same assay, conditions: at 50 nM; Table 5, library procedure 40; read-out: % inhibition (percent c-MET inhibition)

inhibition at 0.05 µM [%] | Structure (SMILES)
58 | CC(Oc1cc(-c2ccc(C(=O)NCCC3CCCN3C)cc2)cnc1N)c1c(Cl)ccc(F)c1Cl [Example L-1]
59 | CC(Oc1cc(-c2ccc(C(=O)NCCCN3CCOCC3)cc2)cnc1N)c1c(Cl)ccc(F)c1Cl [Example L-2]
63 | CC(Oc1cc(-c2ccc(C(=O)NCCCN3CCN(C)CC3)cc2)cnc1N)c1c(Cl)ccc(F)c1Cl [Example L-3]
47 | CC(Oc1cc(-c2ccc(C(=O)NC3CCN(Cc4ccccc4)CC3)cc2)cnc1N)c1c(Cl)ccc(F)c1Cl [Example L-4]
68 | CC(Oc1cc(-c2ccc(C(=O)NCCCO)cc2)cnc1N)c1c(Cl)ccc(F)c1Cl [Example L-5]
69 | CC(Oc1cc(-c2ccc(C(=O)NCCN3CCCCC3)cc2)cnc1N)c1c(Cl)ccc(F)c1Cl [Example L-6]
66 | CC(CO)NC(=O)c1ccc(-c2cnc(N)c(OC(C)c3c(Cl)ccc(F)c3Cl)c2)cc1 [Example L-7]
72 | CC(Oc1cc(-c2ccc(C(=O)NCCCN3CCCCC3C)cc2)cnc1N)c1c(Cl)ccc(F)c1Cl [Example L-8]
64 | CC(Oc1cc(-c2ccc(C(=O)NCc3cccnc3)cc2)cnc1N)c1c(Cl)ccc(F)c1Cl [Example L-9]
67 | CC(Oc1cc(-c2ccc(C(=O)NCc3ccccn3)cc2)cnc1N)c1c(Cl)ccc(F)c1Cl [Example L-10]
67 | CC(Oc1cc(-c2ccc(C(=O)NCCc3ccccn3)cc2)cnc1N)c1c(Cl)ccc(F)c1Cl [Example L-11]
76 | CC(Oc1cc(-c2ccc(C(=O)NCCOCCO)cc2)cnc1N)c1c(Cl)ccc(F)c1Cl [Example L-13]
72 | CC(Oc1cc(-c2ccc(C(=O)N[C@H]3CCN(Cc4ccccc4)C3)cc2)cnc1N)c1c(Cl)ccc(F)c1Cl (stereo partly drawn) [Example L-14]
67 | CC(Oc1cc(-c2ccc(C(=O)N[C@@H]3CCN(Cc4ccccc4)C3)cc2)cnc1N)c1c(Cl)ccc(F)c1Cl (stereo partly drawn) [Example L-15]
83 | CC(Oc1cc(-c2ccc(C(=O)NCCCN(C)C)cc2)cnc1N)c1c(Cl)ccc(F)c1Cl [Example L-16]
76 | CC(Oc1cc(-c2ccc(C(=O)NC3CCN(Cc4ccccc4)C3)cc2)cnc1N)c1c(Cl)ccc(F)c1Cl [Example L-17]
66 | CC(Oc1cc(-c2ccc(C(=O)NCCc3ccccc3)cc2)cnc1N)c1c(Cl)ccc(F)c1Cl [Example L-18]
69 | C[C@H](Oc1cc(-c2ccc(C(=O)N[C@H](CO)c3ccccc3)cc2)cnc1N)c1c(Cl)ccc(F)c1Cl [Example L-20]
86 | CC(Oc1cc(-c2ccc(C(=O)NCC(N)=O)cc2)cnc1N)c1c(Cl)ccc(F)c1Cl [Example L-21]

inhibition at 0.05 µM [%] | Structure (SMILES)
64 | COc1cc(CNC(=O)c2ccc(-c3cnc(N)c(OC(C)c4c(Cl)ccc(F)c4Cl)c3)cc2)ccc1O [Example L-22]
71 | CC(=O)NCCNC(=O)c1ccc(-c2cnc(N)c(OC(C)c3c(Cl)ccc(F)c3Cl)c2)cc1 [Example L-24]
77 | CC(Oc1cc(-c2ccc(C(=O)NCC(C)(C)CN(C)C)cc2)cnc1N)c1c(Cl)ccc(F)c1Cl [Example L-25]
92 | CC(Oc1cc(-c2ccc(C(=O)N3CCC(N(C)C)CC3)cc2)cnc1N)c1c(Cl)ccc(F)c1Cl [Example L-26]
74 | CC(Oc1cc(-c2ccc(C(=O)NCc3ccncc3)cc2)cnc1N)c1c(Cl)ccc(F)c1Cl [Example L-27]
64 | CC(Oc1cc(-c2ccc(C(=O)N3CCC(O)(c4ccccc4)CC3)cc2)cnc1N)c1c(Cl)ccc(F)c1Cl [Example L-28]
86 | CC(Oc1cc(-c2ccc(C(=O)N3CCC(O)CC3)cc2)cnc1N)c1c(Cl)ccc(F)c1Cl [Example L-29]
80 | CCN1CCCC1CNC(=O)c1ccc(-c2cnc(N)c(OC(C)c3c(Cl)ccc(F)c3Cl)c2)cc1 [Example L-30]
92 | CC(Oc1cc(-c2ccc(C(=O)N(C)C3CCN(C)CC3)cc2)cnc1N)c1c(Cl)ccc(F)c1Cl [Example L-32]
63 | CC(Oc1cc(-c2ccc(C(=O)N3CCN(c4ccccn4)CC3)cc2)cnc1N)c1c(Cl)ccc(F)c1Cl [Example L-33]
62 | COc1ccc(CNC(=O)c2ccc(-c3cnc(N)c(OC(C)c4c(Cl)ccc(F)c4Cl)c3)cc2)cc1OC [Example L-34]
55 | CC(Oc1cc(-c2ccc(C(=O)NCCc3ccccc3F)cc2)cnc1N)c1c(Cl)ccc(F)c1Cl [Example L-35]
62 | CC(Oc1cc(-c2ccc(C(=O)N3CCN(Cc4ccccc4)CC3)cc2)cnc1N)c1c(Cl)ccc(F)c1Cl [Example L-36]
75 | CC(Oc1cc(-c2ccc(C(=O)N(C)CCc3ccccn3)cc2)cnc1N)c1c(Cl)ccc(F)c1Cl [Example L-37]
86 | CC(C)NC(=O)CN1CCN(C(=O)c2ccc(-c3cnc(N)c(OC(C)c4c(Cl)ccc(F)c4Cl)c3)cc2)CC1 [Example L-38]
77 | CC(Oc1cc(-c2ccc(C(=O)N3CCCN(C)CC3)cc2)cnc1N)c1c(Cl)ccc(F)c1Cl [Example L-39]
55 | CC(Oc1cc(-c2ccc(C(=O)N3CCC(Cc4ccccc4)CC3)cc2)cnc1N)c1c(Cl)ccc(F)c1Cl [Example L-40]
84 | CCN(Cc1ccncc1)C(=O)c1ccc(-c2cnc(N)c(OC(C)c3c(Cl)ccc(F)c3Cl)c2)cc1 [Example L-41]
